Source: US20210207188A1, “BETA-LACTAM COMPOUNDS AND METHODS OF USE THEREOF” (priority 2018, published 2021)

Tests used:
[1] = target: T1, IMP-1 (Serratia marcescens, UniProt P52699); type: biochemical; settings: IMP-1; for fluorescence signal over time: probe 2.0 μM (MCW-002 1.1 μM, MCW-011 0.5 μM), PBS
T1 construct: His tag; made in house; host or cells: Escherichia coli
Protocol: (§1) Recombinant his-tagged beta-lactamases, including NDM-1, IMP-1, KPC-2, VIM-2 and OXA-48 were overexpressed in Escherichia coli. The enzymes were purified using HisTrap Ni-NTA columns. AmpC and TEM were purchased from commercial sources.
(§2) The fluorescence-based activity assays were performed in phosphate-buffer saline. The concentration of some of the compounds were determined by boiling the compounds in PBS solution until fluorescence signal was saturated. The amount of released fluorophore was quantified via fluorescence spectroscopy by comparing to a corresponding calibration curve.

[2] = target: T2, KPC-2 (Klebsiella pneumoniae, UniProt Q9F663); type: biochemical; settings: for fluorescence signal over time: probe 2.0 μM (MCW-002 1.1 μM, MCW-011 0.5 μM), PBS
T2 construct: His tag; made in house; host or cells: Escherichia coli
Protocol: as §1, §2

[3] = target: T3, NDM-1 (Klebsiella pneumoniae, UniProt C7C422); type: biochemical; settings: for fluorescence signal over time: probe 2.0 μM (MCW-002 1.1 μM, MCW-011 0.5 μM), PBS
T3 construct: His tag; made in house; host or cells: Escherichia coli
Protocol: as §1, §2

[4] = tested on: beta-lactamases, including NDM-1, IMP-1, VIM-2, KPC-2, OXA-48, AmpC, and TEM; test: Fluorescence-based activity assay, whole panel of tested beta-lactamases; type: biochemical; settings: for specificity among the tested beta-lactamases: conclusion from fluorescence signals; for changes in the fluorescence signal with the tested beta-lactamases: probe 2.0 μM, MCW-010 within 20 minutes
Protocol: as §1, §2
Among the tested beta-lactamases, NDM-1, IMP-1, VIM-2, KPC-2 and OXA-48 are carbapenemases, whereas AmpC and TEM are not. Nitrocefin was used as a control to test the activity of the beta-lactamases because it can be hydrolyzed by a wide range of beta-lactamases.

[5] = target: T4, TEM (Escherichia coli, UniProt P62593); test: Activity of beta-lactamases towards probes (fluorescence-based activity assay), TEM; type: biochemical; settings: probe 2.0 μM (MCW-002 1.1 μM, MCW-011 0.5 μM), PBS
T4 construct: purchased
Protocol: as §1, §2

[6] = tested on: AmpC; test: Activity of beta-lactamases towards probes (fluorescence-based activity assay), AmpC; type: biochemical; settings: probe 2.0 μM (MCW-002 1.1 μM, MCW-011 0.5 μM), PBS
Protocol: as §1, §2

[7] = target: T5, VIM-2 (Escherichia coli, UniProt Q5U7L7); type: biochemical; settings: for fluorescence signal over time: probe 2.0 μM (MCW-011 0.5 μM), PBS
T5 construct: His tag; made in house; host or cells: Escherichia coli
Protocol: as §1, §2

[8] = target: T6, OXA-48 (Klebsiella pneumoniae, UniProt Q6XEC0); type: biochemical; settings: for fluorescence signal over time: probe 2.0 μM (MCW-011 0.5 μM), PBS
T6 construct: His tag; made in house; host or cells: Escherichia coli
Protocol: as §1, §2

[9] = tested on: clinical isolates (CPE, Carbapenemase Producing Enterobacteriaceae, and Non CPE strains); test: Selectivity of probes with clinical isolates in lysis buffer (visible light and UV light); type: cell-based; settings: probe 10 μM
Protocol: The selectivity of some probes were evaluated with clinical isolates. The carbapenemases presence in the bacteria (CPE, i.e., Carbapenemase Producing Enterobacteriaceae) were verified by PCR (Polymerase Chain Reaction). 1 μL loop-full of each test bacterium from overnight-cultured LB agar plate were added to 100 μL PBS buffer with 0.5% CHAPS. The bacteria were vortexed to give a homogenious suspension and incubated for 15 min. To each of the bacteria-lysis buffer mixture (20 μL) were added quick test reagents (Probes (Final concentration=10 μM), CarbaNP solution A and CarbaNP solution B). CarbaNP solutions A and B were freshly prepared according to CLSI protocol, where solution A contains 10 mM zinc sulphate and phenol red buffer at pH=7.8±0.1 and solution B was a mixture of solution A with 3 mg/mL imipenem.

| Compound | fluorescence signal over time [1] | fluorescence signal over time [2] | fluorescence signal over time [3] | specificity among the tested beta-lactamases [4] | fluorescence signal over time [5] | fluorescence signal over time [6] | changes in the fluorescence signal with the tested beta-lactamases [4] | fluorescence signal over time [7] | further results |
| --- | --- | --- | --- | --- | --- | --- | --- | --- | --- |
| CC[Si](CC)(CC)O[C@H](C)[C@H]1C(=O)N2C(C(=O)O)=C(/C=C/COc3ccc(COc4ccc5nc6ccc(=O)cc-6oc5c4)cc3OC)C[C@H]12 [MCW-002, (5R,6S)-3-((E)-3-(2-methoxy-4-(((3-oxo-3H-phenoxazin-7-yl)oxy)methyl)phenoxy)prop-1-en-1-yl)-7-oxo-6-((R)-1-((triethylsilyl)oxy)ethyl)-1-azabicyclo[3.2.0]hept-2-ene-2-carboxylic acid] | pronounced increase in the fluorescent signal | minimal changes in the fluorescent signal | pronounced increase in the fluorescent signal | specific for NDM-1 and IMP-1, especially NDM-1 | minimal changes in the fluorescent signal | minimal changes in the fluorescent signal | – | – | relative rate of hydrolysis reaction [1]: slower compared to the reaction with NDM-1 |
| COC(=O)C1=C(/C=C/COc2ccc(COc3ccc4nc5ccc(=O)cc-5oc4c3)cc2OC)C[C@@H]2[C@@H]([C@@H](C)O)C(=O)N12 [MCW-003, Methyl (5R,6S)-6-((R)-1-hydroxyethyl)-3-((E)-3-(2-methoxy-4-(((3-oxo-3H-phenoxazin-7-yl)oxy)methyl)phenoxy)prop-1-en-1-yl)-7-oxo-1-azabicyclo[3.2.0]hept-2-ene-2-carboxylate] | – | – | – | – | – | – | unreactive to the tested beta-lactamases | – | – |
| COc1ccc(-c2c3ccc(=O)cc-3oc3cc(OCc4ccc(OC/C=C/C5=C(C(=O)O)N6C(=O)[C@H]([C@@H](C)O)[C@H]6C5)c(OC)c4)ccc23)c(C)c1 [MCW-004, (5R,6S)-6-((R)-1-hydroxyethyl)-3-((E)-3-(2-methoxy-4-(((9-(4-methoxy-2-methylphenyl)-3-oxo-3H-xanthen-6-yl)oxy)methyl)phenoxy)prop-1-en-1-yl)-7-oxo-1-azabicyclo[3.2.0]hept-2-ene-2-carboxylic acid] | – | – | – | – | – | – | – | – | 3S/k (detection limit of the probe towards the carbapenemase) [7]: 5.37 pM; Kcat ([7]; Michaelis-Menten kinetics): 2.28 ± 0.07 s⁻¹; Km ([7]; Michaelis-Menten kinetics): 1.88 ± 0.13 µM; 3S/k (detection limit of the probe towards the carbapenemase) [1]: 0.328 pM; Kcat ([1]; Michaelis-Menten kinetics): 47.3 ± 3.34 s⁻¹; Km ([1]; Michaelis-Menten kinetics): 1.74 ± 0.29 µM; 3S/k (detection limit of the probe towards the carbapenemase) [2]: 5.28 pM; Kcat ([2]; Michaelis-Menten kinetics): 2.36 ± 0.22 s⁻¹; Km ([2]; Michaelis-Menten kinetics): 3.41 ± 0.59 µM; 3S/k (detection limit of the probe towards the carbapenemase) [3]: 0.546 pM; Kcat ([3]; Michaelis-Menten kinetics): 23.5 ± 0.98 s⁻¹; Km ([3]; Michaelis-Menten kinetics): 1.57 ± 0.16 µM; 3S/k (detection limit of the probe towards the carbapenemase) [8]: 24.9 pM; Kcat ([8]; Michaelis-Menten kinetics): 10.2 ± 0.74 s⁻¹; Km ([8]; Michaelis-Menten kinetics): 1.09 ± 0.12 µM; signal with panel of clinical isolates ([9]; incubated for 15 min): observable fluorogenic signal in CPE strains but not the Non CPE strains; signal with panel of clinical isolates ([9]; incubated for 120 min): observable fluorogenic signal in CPE strains but not the Non CPE strains |
| COc1cc(COc2ccc3nc4ccc(=O)cc-4oc3c2)ccc1OC/C=C/C1=C(C(=O)N(C)O)N2C(=O)[C@H]([C@@H](C)O)[C@H]2C1 [MCW-006, (5R,6S)-N-hydroxy-6-((R)-1-hydroxyethyl)-3-((E)-3-(2-methoxy-4-(((3-oxo-3H-phenoxazin-7-yl)oxy)methyl)phenoxy)prop-1-en-1-yl)-N-methyl-7-oxo-1-azabicyclo[3.2.0]hept-2-ene-2-carboxamide] | – | – | – | – | – | – | unreactive to the tested beta-lactamases | – | – |
| C[C@@H](O)[C@H]1C(=O)N2C(C(=O)O)=C(c3ccc(COc4ccc5nc6ccc(=O)cc-6oc5c4)cc3)C[C@H]12 [MCW-008, (5R,6S)-6-((R)-1-hydroxyethyl)-7-oxo-3-(4-(((3-oxo-3H-phenoxazin-7-yl)oxy)methyl)phenyl)-1-azabicyclo[3.2.0]hept-2-ene-2-carboxylic acid] | increase in the fluorescent signal | increase in the fluorescent signal | increase in the fluorescent signal | specific for carbapenemases | minimal changes in the fluorescent signal | minimal changes in the fluorescent signal | – | increase in the fluorescent signal | fluorescence signal over time [8]: increase in the fluorescent signal |
| COc1ccc(-c2c3ccc(=O)cc-3oc3cc(OCc4ccc(C5=C(C(=O)O)N6C(=O)[C@H]([C@@H](C)O)[C@H]6C5)cc4)ccc23)c(C)c1 [MCW-009, (5R,6S)-6-((R)-1-hydroxyethyl)-3-(4-(((9-(4-methoxy-2-methylphenyl)-3-oxo-3H-xanthen-6-yl)oxy)methyl)phenyl)-7-oxo-1-azabicyclo[3.2.0]hept-2-ene-2-carboxylic acid] | increase in the fluorescent signal | increase in the fluorescent signal | increase in the fluorescent signal | – | – | – | – | increase in the fluorescent signal | time until hydrolysis reaction complete (fluorescent signal plateaued) ([7]; probe 2.0 μM): > 20 min; time until hydrolysis reaction complete (fluorescent signal plateaued) ([1]; probe 2.0 μM): > 20 min; time until hydrolysis reaction complete (fluorescent signal plateaued) ([2]; probe 2.0 μM): > 20 min; time until hydrolysis reaction complete (fluorescent signal plateaued) ([3]; probe 2.0 μM): > 20 min |
| C[C@@H](O)[C@H]1C(=O)N2C(C(=O)O)=C(c3ccc(COc4ccc5nc6ccc(=O)cc-6oc5c4)cc3[N+](=O)[O-])C[C@H]12 [MCW-010, (5R,6S)-6-((R)-1-hydroxyethyl)-3-(2-nitro-4-(((3-oxo-3H-phenoxazin-7-yl)oxy)methyl)phenyl)-7-oxo-1-azabicyclo[3.2.0]hept-2-ene-2-carboxylic acid] | – | – | – | – | – | – | did not exhibited changes in the fluorescence signal | – | – |
| COc1ccc(-c2c3ccc(=O)cc-3oc3cc(OCc4ccc(OC/C=C/C5=C(C(=O)O)N6C(=O)[C@H]([C@@H](C)O)[C@H]6S5)c(OC)c4)ccc23)c(C)c1 [MCW-011, (5R,6S)-6-((R)-1-hydroxyethyl)-3-((E)-3-(2-methoxy-4-(((9-(4-methoxy-2-methylphenyl)-3-oxo-3H-xanthen-6-yl)oxy)methyl)phenoxy)prop-1-en-1-yl)-7-oxo-4-thia-1-azabicyclo[3.2.0]hept-2-ene-2-carboxylic acid] | increase in the fluorescent signal | increase in the fluorescent signal | increase in the fluorescent signal | specific for carbapenemases | minimal changes in the fluorescent signal | minimal changes in the fluorescent signal | – | increase in the fluorescent signal | fluorescence signal over time [8]: increase in the fluorescent signal |
